Experimental data taken from patent US5554653A, “Inhibitors of HIV protease useful for the treatment of AIDS” (Eli Lilly and Company, priority 1992, dated 1996).
In brackets after ≈: the same amount, converted by molar mass.

Biological target: T1, HIV-1 protease (Human immunodeficiency virus type 1 group M subtype B, UniProt P04585)
T1 construct: Purified HIV-1 protease was obtained as described above; made in house; host or cells: E. coli K12 L507/pHP10D (NRRL B-18560)
Assay: biochemical
Format: biochemical
Conditions: for IC50: read-out: Fluorescence Assay IC50 (converted)
Description: C. Preparation of Protease Fraction
A culture of E. coli K12 L507/pHP10D was grown to mid-log phase at 32° C. in LB media containing 12.5 μg/ml tetracycline. The cultivation temperature was quickly elevated to 40° C. to induce gene expression, and the cells were allowed to grow for 2.5 hours at this temperature before the culture was quickly chilled on ice. The cells were centrifuged and the cell pellet was resuspended in 20 mL 50 mmol MES buffer (pH 6.0) containing 1 mmol EDTA, 1 mmol DTT, 1 mmol PMSF and 10% glycerol ("Buffer A"). Cells were lysed by sonication using a Fischer Model 300 Dismembrator and a microtip probe. Following centrifugation at 27,000×g, the supernatant was diluted to a total volume of 60 mL with Buffer A and loaded onto a 2.0×19 cm QAE-Sepharose column (1 mL/min, 4° C.), that had been equilibrated in Buffer A. The column was washed isocratically for 180 min and then eluted with a gradient eluent of 0-1.0M sodium chloride in Buffer A over 120 min. Enzymatic activity was measured by HPLC using the synthetic peptide SQNYPIV as described in Margolin et al., Biochem. Biophys. Res. Commun., 167, 554-560 (1990); the production of the p1 peptide (SQNY) was measured.
The active fractions were combined, made 1.2M in ammonium sulfate, and applied to a 2.0×18 cm hexyl agarose column that had been equilibrated in Buffer A containing 1.2M ammonium sulfate. The sample was loaded at a flow rate of 1 mL/min at 4° C., washed with the equilibration buffer for 240 min (1 mL/min) and then eluted using a reverse linear gradient of 1.2-0M ammonium sulfate in Buffer A for 120 min at the same flow rate. The column was then washed isocratically in Buffer A for 120 min.
The active fractions were combined, concentrated to 10 mL using an Amicon stirred cell with a YM-10 membrane and then applied to a MonoS cation exchange column (1.0×10 cm) that had been equilibrated in Buffer A. The sample was loaded at a flow rate of 1 mL/min at 25° C. After washing isocratically for 30 min, the protease was eluted using a linear gradient of 0-0.45M sodium chloride in Buffer A over 40 min. The column was washed isocratically in Buffer A containing 0.45M sodium chloride for 30 min.
The active fractions were combined and concentrated to 200 μL using an Amicon stirred cell and a YM-10 membrane and then the protease was applied to a Superose 6 size exclusion column equilibrated in Buffer A containing 0.1M sodium chloride.
The purified peptide was labeled with a fluorescent marker at the C-terminal end for use in the Pandex assay. N^α -Biotin-[…]OH SEQ ID NO:3. (1.206 g, 0.936 mmol) was dissolved in 100 mL of 0.1M sodium borate, pH 9.5. Then, a solution of 3 g (7.7 mmol) of fluorescein isothiocyanate in 15 mL dimethyl sulfoxide was added to the reaction mixture in 10 equal portions over two hours. The resulting mixture was allowed to react for one hour after the final addition. The solution was adjusted to pH 3 using 5N hydrochloric acid, resulting in the formation of a precipitate which was removed by centrifugation.
E. Fluorescence HIV-1 Protease Inhibitor Assay
The following buffers and solutions are used in the Fluorescence HIV-1 Protease Inhibitor Assay:
MES-ALB Buffer: 0.05M 4-morpholineethane
Avidin Coated 0.1% solution of Fluoricon
Beads Solution: Avidin Assay Particles
(Avidin conjugated to solid
polystyrene beads, 0.6-0.8
microns in diameter in TBSA
27 IU/mL of purified HIV-1
protease in MES-ALB buffer
(1 IU equals the amount of
enzyme required to hydrolyze
1 μmole of substrate per
To each well of a round bottom, 96-well plate is added 20 μL of the Enzyme Solution followed by 10 μL of the compound to be evaluated in a 20% aqueous dimethylsulfoxide solution. Purified HIV-1 protease was obtained as described above.

IC50 [nM]	Structure (SMILES)	also measured
3.75	CC(=O)N[C@H](CSc1ccc2ccccc2n1)C(=O)N[C@@H](Cc1ccccc1)[C@H](O)Cc1ccccc1C(=O)NC(C)(C)C [Example 24A, [2R-(2R*,3S*,6S*)]-N-t-Butyl-2-[2-hydroxy-3-phenylmethyl-4-aza-5-oxo-6-N(ethanoyl)amino-7-quinolin-2-ylthio]heptyl benzamide]	–
0.207	CC(=O)N[C@H](C[S+]([O-])c1ccc2ccccc2n1)C(=O)N[C@@H](Cc1ccccc1)[C@H](O)Cc1ccccc1C(=O)NC(C)(C)C (stereo partly drawn) [Example 24B, [2R-(2R*,3S*,6S*)]-N-t-Butyl-2-[2-hydroxy-3-phenylmethyl-4-aza-5-oxo-6-N(ethanoyl)amino-7-quinolin-2-ylsulfinyl]heptyl benzamide]	–
0.248	CC(=O)N[C@H](CS(=O)(=O)c1ccc2ccccc2n1)C(=O)N[C@@H](Cc1ccccc1)[C@H](O)Cc1ccccc1C(=O)NC(C)(C)C [Example 24C, [2R-(2R*,3S*,6S*)]-N-t-Butyl-2-[2-hydroxy-3-phenylmethyl-4-aza-5-oxo-6-N(ethanoyl)amino-7-quinolin-2-ylsulfonyl]heptyl benzamide]	–
> 1760	CC(=O)N[C@H](Cc1c[nH]c2ccccc12)C(=O)N[C@@H](Cc1ccccc1)[C@H](O)Cc1ccccc1C(=O)NC(C)(C)C [Example 25, [2R-(2R*,3S*,6R*)]-N-t-Butyl-2-[2-hydroxy-3-phenylmethyl-4-aza-5-oxo-6-N-(ethanoyl)amino-7-indol-3-yl]heptyl benzamide]	–
–	CC(=O)N[C@H](Cc1ccccc1)C(=O)N[C@@H](Cc1ccccc1)[C@H](O)Cc1ccccc1C(=O)NC(C)(C)C [Example 26, [2R-(2R*,3S*,6R*)]-N-t-Butyl-2-[2-hydroxy-3-phenylmethyl-4-aza-5-oxo-6-N-(ethanoyl)amino-7-phenyl]heptyl benzamide]	IC45 (read-out: Fluorescence Assay IC45): 1 µg/mL (≈ 1.89 µM)
371	CC(C)(C)NC(=O)c1ccccc1C[C@@H](O)[C@H](Cc1ccccc1)NC(=O)[C@H](CC(N)=O)NS(=O)(=O)c1ccccn1 [Example 29C, [2R-(2R*,3S*,6S*)]-N-t-Butyl-2-[2-hydroxy-3-phenylmethyl-4-aza-5-oxo-6-N(pyrid-2-ylsulfonyl)amino-7-carbamoyl]heptyl benzamide]	–
18.6	CC(C)(C)NC(=O)c1ccccc1C[C@@H](O)[C@H](Cc1ccccc1)NC(=O)[C@H](CC(N)=O)NS(=O)(=O)c1cccc2cccnc12 [Example 30, [2R-(2R*,3S*,6S*)]-N-t-Butyl-2-[2-hydroxy-3-phenylmethyl-4-aza-5-oxo-6-N(quinolin-8-ylsulfonyl)amino-7-carbamoyl]heptyl benzamide]	–
–	CC(C)(C)NC(=O)c1ccccc1C[C@@H](O)[C@H](Cc1ccccc1)NC(=O)[C@H](CC(=O)OCc1ccccc1)NC(=O)OC(C)(C)C [Example 31A, [2R-(2R*,3S*,6S*)]-N-t-Butyl-2-[2-hydroxy-3-phenylmethyl-4-aza-5-oxo-6-N(t-butoxycarbonyl)amino-7-benzyloxycarbonyl]heptyl benzamide]	IC8 (read-out: Fluorescence Assay IC8): 1 µg/mL
–	CC(C)(C)NC(=O)c1ccccc1C[C@@H](O)[C@H](Cc1ccccc1)NC(=O)[C@H](CC(=O)OCc1ccccc1)NS(C)(=O)=O [Example 31C, [2R-(2R*,3S*,6S*)]-N-t-Butyl-2-[2-hydroxy-3-phenylmethyl-4-aza-5-oxo-6-N(methylsulfonyl)amino-7-benzyloxycarbonyl]heptyl benzamide]	IC30 (read-out: Fluorescence Assay IC30): 1 µg/mL (≈ 1.6 µM)
–	CC(=O)N[C@@H](CSCc1ccccc1)C(=O)N[C@@H](Cc1ccccc1)[C@H](O)Cc1ccccc1C(=O)NC(C)(C)C [Example 32, [2R-(2R*,3S*,6R*)]-N-t-Butyl-2-[2-hydroxy-3-phenylmethyl-4-aza-5-oxo-6-N-(ethanoyl)amino-7-benzylthio]heptyl benzamide]	IC12 (read-out: Fluorescence Assay IC12): 1 µg/mL
68.2	CC(C)(C)NC(=O)c1ccccc1C[C@@H](O)[C@H](Cc1ccccc1)NC(=O)[C@H](CC(N)=O)NS(=O)(=O)c1cccc2ccccc12 [Example 33, [2R-(2R*,3S*,6S*)]-N-t-Butyl-2-[2-hydroxy-3-phenylmethyl-4-aza-5-oxo-6-N (naphth-1-ylsulfonyl)amino-7-carbamoyl]heptyl benzamide]	–
2.02	CC(C)(C)NC(=O)c1ccccc1C[C@@H](O)[C@H](Cc1ccccc1)NC(=O)[C@H](CC(N)=O)NS(=O)(=O)c1ccc2ccccc2c1 [Example 34, [2R-(2R*,3S*,6S*)]-N-t-Butyl-2-[2-hydroxy-3-phenylmethyl-4-aza-5-oxo-6-N (naphth-2-ylsulfonyl)amino-7-carbamoyl]heptyl benzamide]	–
1.04	CC(C)(C)NC(=O)c1ccccc1C[C@@H](O)[C@H](Cc1ccccc1)NC(=O)[C@H](CC(N)=O)NS(=O)(=O)CCc1cccc2ccccc12 [Example 35, [2R-(2R*,3S*,6S*)]-N-t-Butyl-2-[2-hydroxy-3-phenylmethyl-4-aza-5-oxo-6-N (naphth-1-ylethylsulfonyl)amino-7-carbamoyl]heptyl benzamide]	–
5330	CC(C)(C)NC(=O)c1ccccc1C[C@@H](O)[C@H](Cc1ccccc1)NC(=O)[C@H](N)CSc1ccc(F)cc1 [Example 37B, [2R-(2R*,3S*,6S*)]-N-t-Butyl-2-[2-hydroxy-3-phenylmethyl-4-aza-5-oxo-6-amino-7-(p-fluorophenylthio)]heptyl benzamide]	–
1.79	CC(C)(C)NC(=O)c1ccccc1C[C@@H](O)[C@H](Cc1ccccc1)NC(=O)[C@@H](CSc1ccc(F)cc1)NS(C)(=O)=O [Example 37C, [2R-(2R*,3S*,6S*)]-N-t-Butyl-2-[2-hydroxy-3-phenylmethyl-4-aza-5-oxo-6-N(methylsulfonyl)amino-7-(p-fluorophenylthio)]heptyl benzamide]	–
0.158	CC(C)(C)NC(=O)c1ccccc1C[C@@H](O)[C@H](Cc1ccccc1)NC(=O)[C@@H](C[S+]([O-])c1ccc(F)cc1)NS(C)(=O)=O (stereo partly drawn) [Example 37D, [2R-(2R*,3S*,6S*)]-N-t-Butyl-2-[2-hydroxy-3-phenylmethyl-4-aza-5-oxo-6-N(methylsulfonyl)amino-7-(p-fluorophenylsulfinyl)]heptyl benzamide]	–
14.6	Cn1nnnc1SC[C@@H](NS(C)(=O)=O)C(=O)N[C@@H](Cc1ccccc1)[C@H](O)Cc1ccccc1C(=O)NC(C)(C)C [Example 39C, [2R-(2R*,3S*,6S*)]-N-t-Butyl-2-[2-hydroxy-3-phenylmethyl-4-aza-5-oxo-6-N(methylsulfonyl)amino-7-N-(methyl)tetrazolylthio)]heptyl benzamide]	–
1.4	Cn1nnnc1[S+]([O-])C[C@@H](NS(C)(=O)=O)C(=O)N[C@@H](Cc1ccccc1)[C@H](O)Cc1ccccc1C(=O)NC(C)(C)C (stereo partly drawn) [Example 39D, [2R-(2R*,3S*,6S*)]-N-t-Butyl-2-[2-hydroxy-3-phenylmethyl-4-aza-5-oxo-6-N(methylsulfonyl)amino-7-N-(methyl)tetrazolylsulfinyl)]heptyl benzamide]	–

Structure (SMILES)	IC50 [nM]	also measured
CC(C)(C)NC(=O)c1ccccc1C[C@@H](O)[C@H](Cc1ccccc1)NC(=O)[C@@H](CSc1ccc(F)cc1)NC(=O)OC(C)(C)C [Example 37A, [2R-(2R*,3S*,6S*)]-N-t-Butyl-2-[2-hydroxy-3-phenylmethyl-4-aza-5-oxo-6-N(t-butoxycarbonyl)amino-7-(p-fluorophenylthio)]heptyl benzamide]	> 1570	–
Cn1nnnc1SC[C@@H](NC(=O)OC(C)(C)C)C(=O)N[C@@H](Cc1ccccc1)[C@H](O)Cc1ccccc1C(=O)NC(C)(C)C [Example 39A, [2R-(2R*,3S*,6S*)]-N-t-Butyl-2-[2-hydroxy-3-phenylmethyl-4-aza-5-oxo-6-N(t-butoxycarbonyl)amino-7-N-(methyl)tetrazolylthio]heptyl benzamide]	> 1600	–
